Active and inactive are the calls of the source.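 How the source made its calls: active means chemicals rated mutagenic or weakly mutagenic in the Salmonella bacterial test by one literature review, or positive overall by another; inconclusive means no clear call, values can overlap the other calls; inactive means the rest.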 Numbered stars: 1 amine (or outer) side, 2 acyl side, 3 side chain; on linkers, the order of the positions; unused ones are H or OH. Bridge positions count the residues as written; N and C are the ends. Square brackets hold non-standard residues; d marks the D form. Peptide text beside a SMILES is read from it. I, II: the chains in the order shown. Actinocin(9to1) = Cc1c2oc3c(C)ccc(C(=O)[*:1])c3nc-2c(C(=O)[*:2])c(N)c1=O; NMeV = CN[C@H](C(=O)O)C(C)C; Sar = CNCC(=O)O
Tested on: Salmonella typhimurium Ames mutagenicity, literature compiled
Test: DSSTox (CPDBAS) Carcinogenic Potency Database Salmonella Mutagenicity
Excerpt: The Carcinogenic Potency Database (CPDB) is a unique and widely used international resource of the results of over 6500 chronic, long-term animal cancer tests on over 1500 chemical substances. The CPDB provides easy access to the bioassay literature, with qualitative and quantitative analyses of both positive and negative experiments that have been published over the past 50 years in the general literature and by the National Cancer Institute/National Toxicology Program. The CPDB standardizes the diverse literature of cancer bioassays that vary widely in protocol, histopathological examination and nomenclature, and in the published author's choices of what information to provide in their papers. Results are reported in the CPDB for tests in rats, mice, hamsters, dogs, and nonhuman primates, and are based on the most positive result among all experiments for each sex-species. The DSSTox CPDBAS (all species) file incorporates data from the CPDB Summary Tables for the full list of over 1500 chemical substances tested in at least one species.
A chemical is classified within the CPDB as mutagenic, i.e. "active", in the Salmonella assay if it was evaluated overall as either "mutagenic" or "weakly mutagenic" by Zeiger [Zeiger, E. (1997) Genotoxicity Database. In: Gold and Zeiger, Eds. Handbook of Carcinogenic Potency and Genotoxicity Databases. Boca Raton, FL: CRC Press, pp. 687-729. http://potency.berkeley.edu/CRCbook.html] or as overall "positive" by the EPA Gene-Tox Program [Kier et al. (1986) Mutat. Res. 168: 69-240].

Row | Compound | outcome
1 | C/C=C/C=C/C=O | active
2 | CSCCC(N)C(=O)O (centres undefined) | inactive; active
3 | Nc1c(Br)cc(Br)c2c1C(=O)c1ccccc1C2=O | active
4 | O=C1CCCCC1 | inactive; active
5 | CCCCCC(N)=O | inactive; active
6 | O[C@@H]([C@H](O)[C@@H](O)CBr)[C@@H](O)CBr | active
7 | Cc1c2oc3c(C)ccc(C(=O)N[C@@H]4C(=O)N[C@H](C(C)C)C(=O)N5CCC[C@H]5C(=O)N(C)CC(=O)N(C)[C@@H](C(C)C)C(=O)O[C@@H]4C)c3nc-2c(C(=O)N[C@@H]2C(=O)N[C@H](C(C)C)C(=O)N3CCC[C@H]3C(=O)N(C)CC(=O)N(C)[C@@H](C(C)C)C(=O)O[C@@H]2C)c(N)c1=O (I: T[dV]P[Sar][NMeV] / II: T[dV]P[Sar][NMeV]; ester I:1-I:C, II:1-II:C; linker I:N-II:N via Actinocin(9to1)) | inactive; active
8 | CCCCCCCCS(=O)C(C)Cc1ccc2c(c1)OCO2 (centres undefined) | inactive; active
9 | CN(C)[C@@H]1C(=O)C(C(N)=O)=C(O)[C@@]2(O)C(=O)C3=C(O)c4c(O)cccc4[C@@](C)(O)[C@H]3[C@H](O)[C@@H]12 | inactive
10 | Cc1c(N(C)C)c(=O)n(-c2ccccc2)n1C | active
11 | Cc1ccc(OP(=O)(Oc2ccc(C)cc2)Oc2ccc(C)cc2)cc1 | inactive; active
12 | CC(N)Cc1ccccc1 (centres undefined) | inactive
13 | CS(=O)(=O)OCCCCOS(C)(=O)=O | active
14 | C=CCc1ccc(OC)cc1 | inactive; active
15 | CCC(Br)(CC)C(=O)NC(N)=O | inactive
16 | Cc1cccc(N=Nc2ccc(N(C)C)cc2)c1 | active; inactive
17 | O=NN1CCSCC1 | active; inactive
18 | CC(I)C1OCC(CO)O1 (centres undefined) | active
19 | CC1CN(/N=C/c2ccc([N+](=O)[O-])o2)C(=O)N1 (centres undefined) | active; inactive
20 | CCCCC(CC)COC(=O)COc1ccc(Cl)cc1Cl (centres undefined) | inactive
21 | Nc1cc(S(=O)(=O)[O-])cc2cc(S(=O)(=O)[O-])c(N=Nc3ccc(-c4ccc(N=Nc5c(S(=O)(=O)[O-])cc6cc(S(=O)(=O)[O-])cc(N)c6c5O)c(O)c4)cc3O)c(O)c12.[Cu].[Cu].[Na+].[Na+].[Na+].[Na+] | inactive; active
22 | c1ccc(C2CO2)cc1 (centres undefined) | active; inactive

Row | Compound | outcome
23 | Cc1cc(Cl)ccc1N | inactive; active
24 | COc1cc2c(c3oc(=O)c4c(c13)CCC4=O)C1C=COC1O2 (centres undefined) | active
25 | CC(CN1c2ccccc2Sc2ccccc21)N(C)C (centres undefined) | inactive
26 | COc1ccc(O)cc1 | inactive; active
27 | NC(=O)c1ccccc1C(N)=O | inactive
28 | NC(N)=O | inactive; active
29 | c1ccc2c(c1)ccc1cc3c(ccc4ccccc43)cc12 | active
30 | COc1cc(-c2ccc(N)c(OC)c2)ccc1N | active; inactive
31 | Cc1noc(NS(=O)(=O)c2ccc(N)cc2)c1C | inactive; active
32 | CBr | active
33 | Nc1ccc(N=Nc2ccc(-c3ccc(N=Nc4c(S(=O)(=O)O)cc5cc(S(=O)(=O)O)c(N=Nc6ccccc6)c(O)c5c4N)cc3)cc2)c(N)c1 | active
34 | COc1ccc(C(c2ccc(OC)cc2)C(Cl)(Cl)Cl)cc1 | inactive; active
35 | O=c1ccc(=O)[nH][nH]1 | inactive; active
36 | CNc1ccc(N(CCO)CCO)cc1[N+](=O)[O-] | active
37 | ClC(Cl)(Cl)Cl | inactive; active
38 | COc1ccc(N)c(OC)c1 | active; inactive
39 | Cc1ccc(C)c(N)c1 | active; inactive
40 | O=C1CCC(=O)O1 | inactive; active
41 | S=P(N1CC1)(N1CC1)N1CC1 | active; inactive
42 | ClC(Cl)C(Cl)Cl | inactive; active
43 | CCOc1ccccc1C(N)=O | inactive; active
44 | CCOC(=O)C1OC1(C)c1ccccc1 (centres undefined) | inactive; active

Row | Compound | outcome
45 | c1ccc2[nH]c(-c3cscn3)nc2c1 | active
46 | [Cd+2].[Cl-].[Cl-] | inactive; active
47 | CCOP(=S)(OCC)Oc1cc(C)nc(C(C)C)n1 | inactive; active
48 | CC(C)Oc1ccc(Nc2ccccc2)cc1 | inactive; active
49 | O=[N+]([O-])c1ccc(Oc2ccc(Cl)cc2Cl)cc1 | active
50 | O=C(Nc1nc(-c2ccc([N+](=O)[O-])o2)cs1)C(F)(F)F | active
51 | O=C1C(Cl)=C(Cl)C(=O)C(Cl)=C1Cl | active
52 | COc1ccc(O)c(C(C)(C)C)c1 | inactive; active
53 | O=S1(=O)CCCO1 | active; inactive
54 | CC(=O)[O][Hg][c]1ccccc1 | inactive; active
55 | CCNC(=S)NCC | inactive
56 | CCN(CC)C(=S)S[Te](SC(=S)N(CC)CC)(SC(=S)N(CC)CC)SC(=S)N(CC)CC | inactive
57 | CN(CCc1ccccc1)N=O | active
58 | ClC1=C(Cl)[C@]2(Cl)[C@@H]3[C@H]4C=CC(C4)[C@@H]3C1(Cl)C2(Cl)Cl | inactive; active
59 | C=C(Cl)CSC(=S)N(CC)CC | active; inactive
60 | COc1ccc([N+](=O)[O-])cc1N=Nc1c(O)c(C(=O)Nc2cccc([N+](=O)[O-])c2)cc2ccccc12 | active; inactive
61 | CCCCNC(=O)NS(=O)(=O)c1ccc(C)cc1 | inactive; active
62 | CCCCCc1cc(O)c2c(c1)OC(C)(C)[C@@H]1CCC(C)=C[C@@H]21 | inactive; active
63 | CC1=CC(=C(c2ccc(N)cc2)c2ccc(N)cc2)C=CC1=N | active; inactive
64 | Cc1cc(O)c2c(c1O)C(=O)C13C(=C2O)C(=O)C2C(O)C1C1C(O)C3C(=O)C3=C(O)c4c(O)cc(C)c(O)c4C(=O)C321 (centres undefined) | inactive; active
65 | Cn1cc[nH]c1=S | inactive; active
66 | O=S(=O)(O)c1cc(S(=O)(=O)O)c2c(N=Nc3ccccc3)c(O)ccc2c1 | inactive; active

Row | Compound | outcome
67 | O=C(O)CC[N+](=O)[O-] | active; inactive
68 | C=C1C/C(=C/C)C(=O)O[C@@H]2CCN3CC=C(COC(=O)[C@@]1(O)CO)[C@H]23 | active; inactive
69 | c1ccc2c(c1)[nH]c1cnccc12 | active
70 | O=NN1CCCCC1 | active
71 | Nc1ncc([N+](=O)[O-])s1 | active
72 | C=CCCl | active; inactive
73 | COc1c2occc2cc2ccc(=O)oc12 | active
74 | Cc1ccc(N)cc1 | active
75 | ClCc1ccccc1 | active
76 | O=C1c2cccc(O)c2C(=O)c2c(O)cccc21 | active
77 | COC(C)(C)C | inactive; active
78 | O=C1CCc2ccccc2O1 | inactive; active
79 | O=[N+]([O-])c1ccc(Nc2ccc(Nc3ccccc3)c(S(=O)(=O)O)c2)c([N+](=O)[O-])c1 | active; inactive
80 | ClC(Cl)Br | active
81 | C=C1C(CCl)(CCl)C2(Cl)C(Cl)C(Cl)C1(Cl)C2(Cl)Cl (centres undefined) | active; inactive
82 | O=[N+]([O-])c1cccc2ccccc12 | active
83 | ClC1=C(Cl)[C@]2(Cl)[C@@H]3[C@@H]4C[C@@H]([C@H]5O[C@@H]45)[C@@H]3[C@@]1(Cl)C2(Cl)Cl | inactive; active
84 | CC1CCC(C(C)C)C(O)C1 (centres undefined) | inactive; active
85 | O=c1[nH]cc(F)c(=O)[nH]1 | inactive; active
86 | O=C1C=C2C(=CCOC2O)O1 (centres undefined) | inactive; active
87 | CCC1(c2ccccc2)C(=O)N=C(O)NC1=O (centres undefined) | inactive
88 | Nc1ccc(NCCO)c([N+](=O)[O-])c1 | active

Row | Compound | outcome
89 | CC(O)c1ccccc1 (centres undefined) | inactive; active
90 | C[C@]12C=CC(=O)C=C1CC[C@@H]1[C@@H]2C(=O)C[C@@]2(C)[C@H]1CC[C@]2(O)C(=O)CO | active
91 | [O]=[Cr](=[O])([OH])[O][Cr](=[O])(=[O])[OH] | active
92 | c1ccoc1 | inactive
93 | CN(C)CCN(Cc1cccs1)c1ccccn1 | inactive; active
94 | CCC[CH2][Sn]([CH2]CCC)([O]C(C)=O)[O]C(C)=O | inactive
95 | CC(Cl)(Cl)Cl | active
96 | OCC(O)CCl (centres undefined) | active; inactive
97 | O=CNNc1nc(-c2ccc([N+](=O)[O-])o2)cs1 | active; inactive
98 | CCN(Cc1cccc(S(=O)(=O)O)c1)c1ccc(C(=C2C=CC(=[N+](CC)Cc3cccc(S(=O)(=O)O)c3)C=C2)c2ccc(O)cc2S(=O)(=O)[O-])cc1 | inactive; active
99 | CC(N)=O | inactive; active
100 | CC1CO1 (centres undefined) | active
101 | Cc1cc(-c2ccc(N)c(C)c2)ccc1N | active; inactive
102 | COP(=O)(OC)O/C(=C\Cl)c1cc(Cl)c(Cl)cc1Cl | inactive; active
103 | CC(=O)OC/C=C(\C)CCC=C(C)C | inactive
104 | O=c1ccc2ccccc2o1 | active; inactive
105 | O=C1C2CC=CCC2C(=O)N1SC(Cl)(Cl)Cl (centres undefined) | active
106 | CN(C)Nc1nc(-c2ccc([N+](=O)[O-])o2)cs1 | active; inactive
107 | CN(C)C(=O)Nc1cccc(C(F)(F)F)c1 | inactive
108 | O=c1cc(CO)occ1O | active; inactive
109 | CCc1cc(C(N)=S)ccn1 | inactive; active

Source: PubChem BioAssay AID1194 (EPA DSSTox, 2008)
